Data reported in PMC7316778 (Nature Communications, 2020).
“And” between values parts separate entries of the source, which are not always exact repeats. Identical values can stand only once. Like-named read-outs stand apart in the source and are kept apart here.

Experiments:
Assay in all cases: SelectScreen kinase assay
DYRK4 = DYRK4 (Homo sapiens, UniProt Q9NR20); assay type: biochemical
CDK9/cyclin T1 = CDK9/cyclin T1 (Homo sapiens, UniProt P50750)
Protocol: (§1) Selectivity profiling assays were performed by the Invitrogen SelectScreen™ Services. […] The concentration of ATP was selected to be equal to the KM, unless indicated otherwise.

CHEK2 (CHK2) = CHEK2 (CHK2) (Homo sapiens, UniProt O96017)
Protocol: as §1

CLK1 = CLK1 (Homo sapiens, UniProt P49759)
Protocol: as §1

CSK = CSK (Homo sapiens, UniProt P41240); details: for Inhibition at 1 µM (%): CSK, ZLYTE, ATP Km app
Protocol: as §1

DNA-PK = DNA-PK (Homo sapiens, UniProt P78527)
Protocol: as §1

FES (FPS) = FES (FPS) (Homo sapiens, UniProt P07332)
Protocol: as §1

GRK5 = GRK5 (Homo sapiens, UniProt P34947)
Protocol: as §1

GSK3A (GSK3 alpha) = GSK3A (GSK3 alpha) (Homo sapiens, UniProt P49840)
Protocol: as §1

IGF1R = IGF1R (Homo sapiens, UniProt P08069)
Protocol: as §1

IKBKB (IKK beta) = IKBKB (IKK beta) (Homo sapiens, UniProt O14920)
Protocol: as §1

IRAK1 = IRAK1 (Homo sapiens, UniProt P51617)
Protocol: as §1

KIT = KIT (Homo sapiens, UniProt P10721)
Protocol: as §1

LRRK2 FL = LRRK2 FL (Homo sapiens, UniProt Q5S007)
Protocol: as §1

LYN A = LYN A (Homo sapiens, UniProt P07948)
Protocol: as §1

MYLK (MLCK) = MYLK (MLCK) (Homo sapiens, UniProt Q15746)
Protocol: as §1

NEK6 = NEK6 (Homo sapiens, UniProt Q9HC98); details: for Inhibition at 1 µM (%): NEK6, ZLYTE, ATP Km app
Protocol: as §1

NEK7 = NEK7 (Homo sapiens, UniProt Q8TDX7)
Protocol: as §1

PEAK1 = PEAK1 (Homo sapiens, UniProt Q9H792)
Protocol: as §1

PRKACG (PRKAC gamma) = PRKACG (PRKAC gamma) (Homo sapiens, UniProt P22612); details: for Inhibition at 1 µM (%): PRKACG (PRKAC gamma), LanthaScreen Binding
Protocol: as §1

PRKCB1 (PKC beta I) = PRKCB1 (PKC beta I) (Homo sapiens, UniProt P05771)
Protocol: as §1

RPS6KA2 (RSK3) = RPS6KA2 (RSK3) (Homo sapiens, UniProt Q15349); details: 1 h, 1 μM WEL028, 1 h preincubation
Protocol: as §1

SGKL (SGK3) = SGKL (SGK3) (Homo sapiens, UniProt Q96BR1)
Protocol: as §1

STK32C (YANK3) = STK32C (YANK3) (Homo sapiens, UniProt Q86UX6)
Protocol: as §1

STK38L (NDR2) = STK38L (NDR2) (Homo sapiens, UniProt Q9Y2H1); details: for Inhibition at 1 µM (%): LanthaScreen Binding
Protocol: as §1

[1] = 1 h, 1 μM WEL028, 1 h preincubation
[2] = read-out: Inhibition at 1 µM (%)

Chain of CDK9/cyclin T1 (P50750 whole entry): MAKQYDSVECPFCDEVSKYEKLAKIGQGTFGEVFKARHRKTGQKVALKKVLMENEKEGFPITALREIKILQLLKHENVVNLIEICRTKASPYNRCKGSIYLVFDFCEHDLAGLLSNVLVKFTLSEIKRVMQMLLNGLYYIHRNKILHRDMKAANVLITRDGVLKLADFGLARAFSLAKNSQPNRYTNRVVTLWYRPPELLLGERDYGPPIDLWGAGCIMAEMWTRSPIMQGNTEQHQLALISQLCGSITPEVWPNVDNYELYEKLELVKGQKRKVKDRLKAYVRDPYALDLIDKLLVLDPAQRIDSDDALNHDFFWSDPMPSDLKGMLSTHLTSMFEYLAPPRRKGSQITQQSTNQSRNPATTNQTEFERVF
Chain of CDK9/cyclin T1 (O60563 whole entry partner): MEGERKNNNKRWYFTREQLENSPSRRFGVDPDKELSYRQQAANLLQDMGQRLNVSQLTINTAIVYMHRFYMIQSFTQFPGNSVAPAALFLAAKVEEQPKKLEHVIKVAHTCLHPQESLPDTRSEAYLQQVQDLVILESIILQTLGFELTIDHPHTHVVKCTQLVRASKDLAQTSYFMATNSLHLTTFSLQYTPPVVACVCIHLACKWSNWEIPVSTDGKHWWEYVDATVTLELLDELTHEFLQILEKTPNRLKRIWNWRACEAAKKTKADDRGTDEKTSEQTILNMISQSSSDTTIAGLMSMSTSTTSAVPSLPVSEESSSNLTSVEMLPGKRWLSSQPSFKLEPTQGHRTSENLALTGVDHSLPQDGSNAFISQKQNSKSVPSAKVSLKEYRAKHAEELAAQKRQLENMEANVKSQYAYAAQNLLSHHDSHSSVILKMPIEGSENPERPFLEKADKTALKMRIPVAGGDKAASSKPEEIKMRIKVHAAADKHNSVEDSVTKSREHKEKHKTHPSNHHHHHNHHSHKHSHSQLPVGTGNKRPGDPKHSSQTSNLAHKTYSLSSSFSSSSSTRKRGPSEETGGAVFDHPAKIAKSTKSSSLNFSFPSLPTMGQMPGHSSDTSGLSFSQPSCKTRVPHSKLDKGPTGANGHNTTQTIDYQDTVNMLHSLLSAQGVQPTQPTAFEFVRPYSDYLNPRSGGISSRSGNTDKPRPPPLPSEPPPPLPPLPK
Chain of IRAK1 (P51617 whole entry): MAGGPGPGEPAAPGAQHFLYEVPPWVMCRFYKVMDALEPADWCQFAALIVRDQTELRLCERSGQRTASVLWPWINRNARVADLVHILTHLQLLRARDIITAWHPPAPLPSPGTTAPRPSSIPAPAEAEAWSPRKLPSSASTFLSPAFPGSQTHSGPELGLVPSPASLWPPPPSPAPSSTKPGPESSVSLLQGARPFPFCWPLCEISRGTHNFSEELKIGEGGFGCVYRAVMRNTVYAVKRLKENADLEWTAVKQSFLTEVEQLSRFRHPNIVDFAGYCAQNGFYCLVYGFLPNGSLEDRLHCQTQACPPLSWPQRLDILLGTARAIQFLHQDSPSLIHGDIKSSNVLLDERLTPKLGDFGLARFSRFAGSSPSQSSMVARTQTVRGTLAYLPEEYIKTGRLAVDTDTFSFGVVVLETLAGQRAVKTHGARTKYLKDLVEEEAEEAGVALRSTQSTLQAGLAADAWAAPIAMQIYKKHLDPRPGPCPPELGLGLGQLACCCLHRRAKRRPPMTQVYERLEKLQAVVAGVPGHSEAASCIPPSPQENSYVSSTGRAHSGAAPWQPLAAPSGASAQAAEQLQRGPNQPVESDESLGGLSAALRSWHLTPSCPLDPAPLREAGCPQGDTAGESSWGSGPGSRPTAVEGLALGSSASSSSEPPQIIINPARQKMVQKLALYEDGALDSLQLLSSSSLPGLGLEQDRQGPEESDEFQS
Chain of KIT (P10721 26-976): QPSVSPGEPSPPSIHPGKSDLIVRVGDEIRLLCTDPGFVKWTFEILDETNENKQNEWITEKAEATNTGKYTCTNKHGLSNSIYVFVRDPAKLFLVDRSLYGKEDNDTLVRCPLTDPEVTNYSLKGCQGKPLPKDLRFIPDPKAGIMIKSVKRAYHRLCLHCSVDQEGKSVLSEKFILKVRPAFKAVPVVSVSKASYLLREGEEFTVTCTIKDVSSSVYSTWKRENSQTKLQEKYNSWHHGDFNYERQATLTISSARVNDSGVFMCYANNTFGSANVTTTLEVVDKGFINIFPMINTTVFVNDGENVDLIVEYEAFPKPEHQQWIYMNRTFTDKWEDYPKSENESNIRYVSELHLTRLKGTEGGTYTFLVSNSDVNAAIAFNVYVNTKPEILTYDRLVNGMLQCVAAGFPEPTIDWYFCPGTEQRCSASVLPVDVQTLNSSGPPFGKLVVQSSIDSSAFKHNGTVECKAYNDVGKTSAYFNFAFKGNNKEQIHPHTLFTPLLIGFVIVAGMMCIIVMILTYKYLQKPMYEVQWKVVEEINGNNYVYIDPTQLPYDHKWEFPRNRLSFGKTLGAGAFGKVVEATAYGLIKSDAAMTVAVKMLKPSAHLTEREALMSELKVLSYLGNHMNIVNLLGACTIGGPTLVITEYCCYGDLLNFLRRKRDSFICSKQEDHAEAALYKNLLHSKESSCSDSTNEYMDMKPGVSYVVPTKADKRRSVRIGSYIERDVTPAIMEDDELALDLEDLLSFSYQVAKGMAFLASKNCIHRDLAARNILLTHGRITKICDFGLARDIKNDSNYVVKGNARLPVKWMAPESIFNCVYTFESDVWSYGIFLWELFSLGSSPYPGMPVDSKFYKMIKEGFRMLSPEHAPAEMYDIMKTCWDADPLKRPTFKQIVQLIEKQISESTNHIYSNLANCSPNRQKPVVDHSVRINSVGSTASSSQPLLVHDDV
Chain of PEAK1 (Q9H792 whole entry): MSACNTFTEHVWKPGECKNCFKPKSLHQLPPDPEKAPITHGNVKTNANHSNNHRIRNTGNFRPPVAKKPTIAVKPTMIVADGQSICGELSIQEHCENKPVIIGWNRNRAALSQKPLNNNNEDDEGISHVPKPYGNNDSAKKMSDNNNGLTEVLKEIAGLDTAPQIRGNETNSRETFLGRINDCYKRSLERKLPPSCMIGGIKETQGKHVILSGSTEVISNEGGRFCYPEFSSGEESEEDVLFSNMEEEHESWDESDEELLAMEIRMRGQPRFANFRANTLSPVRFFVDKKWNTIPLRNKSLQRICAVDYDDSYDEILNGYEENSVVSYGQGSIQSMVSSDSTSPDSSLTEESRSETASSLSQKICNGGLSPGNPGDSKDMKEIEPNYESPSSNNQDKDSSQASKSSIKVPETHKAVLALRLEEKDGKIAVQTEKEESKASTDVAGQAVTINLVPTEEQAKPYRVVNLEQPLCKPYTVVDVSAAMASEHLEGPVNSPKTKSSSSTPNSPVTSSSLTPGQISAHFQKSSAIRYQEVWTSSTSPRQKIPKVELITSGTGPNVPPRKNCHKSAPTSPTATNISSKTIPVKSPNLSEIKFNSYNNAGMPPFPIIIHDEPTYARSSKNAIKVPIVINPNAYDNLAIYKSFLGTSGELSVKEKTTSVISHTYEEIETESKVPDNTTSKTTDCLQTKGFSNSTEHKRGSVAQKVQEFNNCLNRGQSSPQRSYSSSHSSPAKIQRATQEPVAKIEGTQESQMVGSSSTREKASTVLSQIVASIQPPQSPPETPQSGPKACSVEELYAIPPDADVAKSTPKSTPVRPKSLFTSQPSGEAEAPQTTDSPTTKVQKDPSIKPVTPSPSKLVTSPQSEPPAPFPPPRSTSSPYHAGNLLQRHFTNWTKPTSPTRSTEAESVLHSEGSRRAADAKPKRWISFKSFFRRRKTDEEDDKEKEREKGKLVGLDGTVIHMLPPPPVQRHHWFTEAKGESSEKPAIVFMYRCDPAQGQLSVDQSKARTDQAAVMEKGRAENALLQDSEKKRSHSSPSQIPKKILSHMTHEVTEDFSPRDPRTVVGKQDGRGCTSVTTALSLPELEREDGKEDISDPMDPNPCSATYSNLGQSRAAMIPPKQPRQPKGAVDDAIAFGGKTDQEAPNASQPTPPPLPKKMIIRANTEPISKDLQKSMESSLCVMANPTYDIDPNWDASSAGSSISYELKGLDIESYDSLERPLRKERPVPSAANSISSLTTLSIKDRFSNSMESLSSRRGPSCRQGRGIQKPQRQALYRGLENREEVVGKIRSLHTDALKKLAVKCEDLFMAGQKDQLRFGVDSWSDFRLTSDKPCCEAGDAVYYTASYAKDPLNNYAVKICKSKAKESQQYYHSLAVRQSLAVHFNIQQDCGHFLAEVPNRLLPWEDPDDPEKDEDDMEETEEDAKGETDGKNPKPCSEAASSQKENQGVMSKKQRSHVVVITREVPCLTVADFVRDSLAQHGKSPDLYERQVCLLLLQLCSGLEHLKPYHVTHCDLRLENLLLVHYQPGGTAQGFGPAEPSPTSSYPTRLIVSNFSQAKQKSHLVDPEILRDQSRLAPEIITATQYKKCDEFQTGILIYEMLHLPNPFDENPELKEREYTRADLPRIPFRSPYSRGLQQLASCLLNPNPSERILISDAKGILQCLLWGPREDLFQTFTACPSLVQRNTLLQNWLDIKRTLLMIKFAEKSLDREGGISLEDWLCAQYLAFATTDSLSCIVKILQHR
Chain of CLK1 (P49759 whole entry): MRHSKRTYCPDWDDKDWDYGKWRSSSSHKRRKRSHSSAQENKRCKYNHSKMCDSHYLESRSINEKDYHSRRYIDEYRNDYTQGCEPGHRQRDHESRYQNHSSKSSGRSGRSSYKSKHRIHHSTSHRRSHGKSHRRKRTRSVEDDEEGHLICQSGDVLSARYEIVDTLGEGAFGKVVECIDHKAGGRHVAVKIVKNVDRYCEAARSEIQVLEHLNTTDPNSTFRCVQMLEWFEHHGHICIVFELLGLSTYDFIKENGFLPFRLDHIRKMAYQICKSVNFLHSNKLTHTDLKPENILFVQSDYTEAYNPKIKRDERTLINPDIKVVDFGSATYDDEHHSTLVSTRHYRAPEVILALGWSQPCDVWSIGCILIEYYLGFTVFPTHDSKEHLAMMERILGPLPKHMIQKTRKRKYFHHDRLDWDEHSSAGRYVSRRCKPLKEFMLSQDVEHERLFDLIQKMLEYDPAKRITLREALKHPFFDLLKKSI

Question: For `C#CCOc1ccc(Nc2ncc(Cl)c(Nc3ccccc3NC(=O)C=C)n2)c(OC)c1` [Compound 6], which inhibition at 1 µM (DYRK4; [1]) is on record?
Answer: 0%

Question: And the “Inhibition at 1 µM (%)” value (DYRK4; DYRK4, 1 µM, ZLYTE, ATP Km app, listed as WEL028, 1 µM)?
Answer: -4% and 4%

Question: What about the inhibition at 1 µM (CDK9/cyclin T1; [1]) of the same molecule?
Answer: 16%

Question: What about the “Inhibition at 1 µM (%)” value (CDK9/cyclin T1; CDK9/cyclin T1, 1 µM, Adapta, ATP Km app, listed as WEL028, 1 µM) of the same molecule?
Answer: 12%

Question: What about the inhibition at 1 µM (CDK9/cyclin T1; read-out: Inhibition at 1 µM (%), CDK9/cyclin T1, 1 µM, Adapta, ATP Km app) of the same molecule?
Answer: 20%

Question: What about the inhibition at 1 µM (CHEK2 (CHK2); [1]) of the same molecule?
Answer: 4%

Question: What about the “Inhibition at 1 µM (%)” value (CHEK2 (CHK2); CHEK2 (CHK2), 1 µM, ZLYTE, ATP Km app) of the same molecule?
Answer: 14%

Question: And the inhibition at 1 µM (CLK1; [1])?
Answer: 5%

Question: And the “Inhibition at 1 µM (%)” value (CLK1; CLK1, 1 µM, ZLYTE, ATP Km app, listed as WEL028, 1 µM)?
Answer: 1% and 8%

Question: And the “Inhibition (%)” value (CSK; 1 μM WEL028, 1 h preincubation)?
Answer: 5%

Question: And the “Inhibition at 1 µM (%)” value (CSK)?
Answer: 2%

Question: What about the “Inhibition at 1 µM (%)” value (CSK; listed as WEL028, 1 µM) of the same molecule?
Answer: 8%

Question: And the inhibition at 1 µM (DNA-PK; [1])?
Answer: 6%

Question: And the “Inhibition at 1 µM (%)” value (DNA-PK; DNA-PK, 1 µM, ZLYTE, ATP Km app, listed as WEL028, 1 µM)?
Answer: 8%

Question: And the inhibition at 1 µM (DNA-PK; read-out: Inhibition at 1 µM (%), DNA-PK, 1 µM, ZLYTE, ATP Km app)?
Answer: 4%

Question: And the inhibition at 1 µM (FES (FPS); [1])?
Answer: 15%

Question: What about the “Inhibition at 1 µM (%)” value (FES (FPS); FES (FPS), 1 µM, ZLYTE, ATP Km app, listed as WEL028, 1 µM) of the same molecule?
Answer: 17%

Question: What about the inhibition at 1 µM (FES (FPS); read-out: Inhibition at 1 µM (%), FES (FPS), 1 µM, ZLYTE, ATP Km app) of the same molecule?
Answer: 12%

Question: What about the inhibition at 1 µM (GRK5; 1 h) of the same molecule?
Answer: 4%

Question: And the inhibition at 1 µM (GRK5; [2])?
Answer: 4%

Question: And the inhibition at 1 µM (GSK3A (GSK3 alpha); [1])?
Answer: 6%

Question: What about the “Inhibition at 1 µM (%)” value (GSK3A (GSK3 alpha); GSK3A (GSK3 alpha), 1 µM, ZLYTE, ATP Km app, listed as WEL028, 1 µM) of the same molecule?
Answer: 7%

Question: And the inhibition at 1 µM (GSK3A (GSK3 alpha); read-out: Inhibition at 1 µM (%), GSK3A (GSK3 alpha), 1 µM, ZLYTE, ATP Km app)?
Answer: 5%

Question: And the inhibition at 1 µM (IGF1R; [1])?
Answer: 15%

Question: And the inhibition at 1 µM (IGF1R; read-out: Inhibition at 1 µM (%), IGF1R, 1 µM, ZLYTE, ATP Km app)?
Answer: 14%

Question: And the inhibition at 1 µM (IKBKB (IKK beta); 1 h)?
Answer: 1%

Question: And the inhibition at 1 µM (IKBKB (IKK beta); [2])?
Answer: 1%

Question: What about the inhibition at 1 µM (IRAK1; [1]) of the same molecule?
Answer: 26%

Question: What about the “Inhibition at 1 µM (%)” value (IRAK1; IRAK1, 1 µM, Adapta, ATP Km app, listed as WEL028, 1 µM) of the same molecule?
Answer: 31%

Question: And the inhibition at 1 µM (IRAK1; read-out: Inhibition at 1 µM (%), IRAK1, 1 µM, Adapta, ATP Km app)?
Answer: 20%

Question: What about the inhibition at 1 µM (KIT; [1]) of the same molecule?
Answer: 18%

Question: What about the “Inhibition at 1 µM (%)” value (KIT; KIT, 1 µM, ZLYTE, ATP Km app, listed as WEL028, 1 µM) of the same molecule?
Answer: 16%

Question: What about the inhibition at 1 µM (KIT; read-out: Inhibition at 1 µM (%), KIT, 1 µM, ZLYTE, ATP Km app) of the same molecule?
Answer: 21%

Question: What about the inhibition at 1 µM (LRRK2 FL; [1]) of the same molecule?
Answer: 97%

Question: What about the inhibition at 10 µM (LRRK2 FL; 1 h, log[inhibitor] (M) -5.00, Adapta, ATP Km app) of the same molecule?
Answer: 100%

Question: And the inhibition at 3.311 µM (LRRK2 FL; 1 h, log[inhibitor] (M) -5.48, Adapta, ATP Km app)?
Answer: 100%

Question: What about the inhibition at 1.122 µM (LRRK2 FL; 1 h, log[inhibitor] (M) -5.95, Adapta, ATP Km app) of the same molecule?
Answer: 100%

Question: What about the inhibition at 0.3715 µM (LRRK2 FL; 1 h, log[inhibitor] (M) -6.43, Adapta, ATP Km app) of the same molecule?
Answer: 100%

Question: What about the inhibition at 0.123 µM (LRRK2 FL; 1 h, log[inhibitor] (M) -6.91, Adapta, ATP Km app) of the same molecule?
Answer: 86%

Question: And the inhibition at 0.04074 µM (LRRK2 FL; 1 h, log[inhibitor] (M) -7.39, Adapta, ATP Km app)?
Answer: 39%

Question: What about the “Inhibition at 1 µM (%)” value (LRRK2 FL; LRRK2 FL, 1 µM, Adapta, ATP Km app, listed as WEL028, 1 µM) of the same molecule?
Answer: 96%

Question: What about the inhibition at 1 µM (LRRK2 FL; read-out: Inhibition at 1 µM (%), LRRK2 FL, 1 µM, Adapta, ATP Km app) of the same molecule?
Answer: 98%

Question: And the inhibition at 1 µM (LYN A; [1])?
Answer: 5%

Question: And the “Inhibition at 1 µM (%)” value (LYN A; LYN A, 1 µM, ZLYTE, ATP Km app, listed as WEL028, 1 µM)?
Answer: 6%

Question: What about the inhibition at 1 µM (LYN A; read-out: Inhibition at 1 µM (%), LYN A, 1 µM, ZLYTE, ATP Km app) of the same molecule?
Answer: 5%

Question: And the inhibition at 1 µM (MYLK (MLCK); 1 h)?
Answer: 15%

Question: And the inhibition at 1 µM (MYLK (MLCK); [2])?
Answer: 15%

Question: And the inhibition at 1 µM (NEK6; [1])?
Answer: 9%

Question: And the “Inhibition at 1 µM (%)” value (NEK6)?
Answer: 13%

Question: And the “Inhibition at 1 µM (%)” value (NEK6; listed as WEL028, 1 µM)?
Answer: 5%

Question: And the inhibition at 1 µM (NEK7; [1])?
Answer: -3%

Question: And the “Inhibition at 1 µM (%)” value (NEK7; NEK7, 1 µM, ZLYTE, ATP Km app, listed as WEL028, 1 µM)?
Answer: -2%

Question: What about the inhibition at 1 µM (PEAK1; [1]) of the same molecule?
Answer: 7%

Question: What about the “Inhibition at 1 µM (%)” value (PEAK1; PEAK1, 1 µM, ZLYTE, ATP Km app, listed as WEL028, 1 µM) of the same molecule?
Answer: 8%

Question: What about the inhibition at 1 µM (PEAK1; read-out: Inhibition at 1 µM (%), PEAK1, 1 µM, ZLYTE, ATP Km app) of the same molecule?
Answer: 6%

Question: What about the inhibition at 1 µM (PRKACG (PRKAC gamma); [1]) of the same molecule?
Answer: 3%

Question: And the “Inhibition at 1 µM (%)” value (PRKACG (PRKAC gamma))?
Answer: 2%

Question: What about the “Inhibition at 1 µM (%)” value (PRKACG (PRKAC gamma); listed as WEL028, 1 µM) of the same molecule?
Answer: 5%

Question: And the inhibition at 1 µM (PRKCB1 (PKC beta I); [1])?
Answer: 16%

Question: And the “Inhibition at 1 µM (%)” value (PRKCB1 (PKC beta I); PRKCB1 (PKC beta I), 1 µM, ZLYTE, ATP Km app)?
Answer: 25%

Question: And the inhibition at 1 µM (RPS6KA2 (RSK3))?
Answer: 19%

Question: And the “Inhibition at 1 µM (%)” value (SGKL (SGK3); 1 µM, ZLYTE, ATP Km app, listed as WEL028, 1 µM)?
Answer: -12% and -2%

Question: What about the inhibition at 1 µM (SGKL (SGK3); [1]) of the same molecule?
Answer: -7%

Question: And the inhibition at 1 µM (STK32C (YANK3); 1 h)?
Answer: 3%

Question: What about the inhibition at 1 µM (STK32C (YANK3); [2]) of the same molecule?
Answer: 3%

Question: And the “Inhibition at 1 µM (%)” value (STK38L (NDR2))?
Answer: 2%

Question: And the “Inhibition at 1 µM (%)” value (STK38L (NDR2); listed as WEL028, 1 µM)?
Answer: 7%

Question: What about the inhibition at 1 µM (STK38L (NDR2); [1]) of the same molecule?
Answer: 5%
